Test results: the supplement of paper PMC12317010

Assay: collision cross section in nitrogen (drift tube, single-field); higher = larger gas-phase ion size
[1] = ion type: [M+H], ion source: ESI, ion mode: Positive
[2] = ion type: [M-H], ion source: ESI, ion mode: Negative
[3] = ion type: [M+H], ion source: APCI, ion mode: Positive
[4] = ion type: [M+Na], ion source: ESI, ion mode: Positive
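Also: chemical standards at 10 µM analysed by drift tube IMS-QTOF MS in about 3.95 torr nitrogen, mean of duplicate injections differing ≤1%, mass error below 10 ppm.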

Compound	collision cross section in nitrogen [1]	collision cross section in nitrogen [2]	collision cross section in nitrogen [3]	collision cross section in nitrogen [4]	other results
N[C@@H](Cc1cc(I)c(Oc2ccc(O)c(I)c2)c(I)c1)C(=O)O [3,5,3'-Triiodothyronine]	205.3 Å²	198.1 Å²	–	–	–
CS(=O)(=O)c1ccc(C2=C(c3ccccc3)C(=O)OC2)cc1 [Rofecoxib]	–	174.4 Å²	–	–	–
Cc1ncc([N+](=O)[O-])n1CCO [Metronidazole]	134.3 Å²	–	133.8 Å²	–	–
Cc1ccc(-c2nc3ccccc3o2)cc1 [2-(4-Methylphenyl)-1,3-benzoxazole]	145.5 Å²	–	145.3 Å²	–	–
Cn1c(=O)cc(Oc2ccc(F)cc2F)c2cnc(NCC(C)(C)O)nc21	192.4 Å²	193.4 Å²	192.8 Å²	205.6 Å²	–
CCCCCCCCCCCCc1ccccc1S(=O)(=O)O [Sodium dodecylbenzenesulfonate]	–	186.3 Å²	–	167.5 Å²	–
CCOP(=S)(OCC)OP(=S)(OCC)OCC [Sulfotep]	–	–	–	172.2 Å²	–
CC=Cc1ccc(OCc2ccccc2)c(OC)c1 [1-Benzyloxy-2-methoxy-4-(1-propenyl)benzene]	–	–	–	172.2 Å²	–
CCOC(=O)COc1ccc2c(c1)CC(NCC(O)c1cccc(Cl)c1)CC2 (stereo not given)	192.2 Å²	194.5 Å²	192.3 Å²	198.6 Å²	–
CCCCCCOC(=O)CCC [Hexyl butyrate]	–	149.7 Å²	–	–	–
CCOCCOC(=O)C=Cc1ccc(OC)cc1 [Cinoxate]	–	–	–	155.6 Å²	–
COC(=O)NS(=O)(=O)c1ccc(N)cc1 [Asulam]	–	150.4 Å²	–	–	–
CC12CC1(C)C(=O)N(c1cc(Cl)cc(Cl)c1)C2=O (stereo not given) [Procymidone]	–	157.1 Å²	–	–	–
CCC(C)c1cccc(C(C)CC)c1O (stereo not given) [2,6-Di(butan-2-yl)phenol]	–	151.4 Å²	–	–	–
CCCCCCCCC=CCCCCCCCC1=NCCN1CCO [2-(8-Heptadecenyl)-2-imidazoline-1-ethanol]	199.8 Å²	196.6 Å²	199.3 Å²	–	–
O=C1NS(=O)(=O)c2ccccc21 [Saccharin]	–	131.1 Å²	–	–	–
Cc1ccc(Nc2ccc(Nc3ccc(C)cc3S(=O)(=O)O)c3c2C(=O)c2ccccc2C3=O)c(S(=O)(=O)O)c1	235.2 Å²	227.8 Å²	–	–	–
c1ccc(CCCc2ccccn2)cc1 [2-(3-Phenylpropyl)pyridine]	141.1 Å²	–	140.8 Å²	–	–
Oc1ccc(-c2ccccc2)cc1Cl [3-Chloro[1,1′-biphenyl]-4-ol]	–	143.8 Å²	–	–	–
CNC(=O)Nc1ccc(Cl)c(Cl)c1 [N-(3,4-Dichlorophenyl)-N'-methylurea]	–	142.4 Å²	–	–	–

Compound	collision cross section in nitrogen [1]	collision cross section in nitrogen [2]	collision cross section in nitrogen [3]	collision cross section in nitrogen [4]	other results
O=c1cccc[nH]1 [2(1H)-Pyridinone]	115.5 Å²	–	–	–	–
Clc1ccc(C2(Cn3cncn3)CC(Br)CO2)c(Cl)c1 (stereo not given) [Bromuconazole]	172.6 Å²	–	172.7 Å²	–	–
COc1cc(-c2ccc(N)c(OC)c2)ccc1N [C.I. Disperse Black 6]	170 Å²	–	170.4 Å²	–	collision cross section in nitrogen (ion type: [M+], ion source: APCI, ion mode: Positive): 156.6 Å²
CCc1ccc(C(=O)NN(C(=O)c2cc(C)cc(C)c2)C(C)(C)C)cc1 [Tebufenozide]	–	193.6 Å²	–	201.3 Å²	–
CCOC(=O)CN[C@@H](C(=O)N1CC[C@H]1C(=O)NCc1ccc(/C(N)=N/O)cc1)C1CCCCC1 [Ximelagatran]	208.6 Å²	216.1 Å²	208.6 Å²	213 Å²	–
O=C(Nc1ccccc1)c1cc(Cl)ccc1O [5-Chlorosalicylanilide]	–	151.9 Å²	–	–	–
CCCCC(CC)C(=O)OCCOCCOCCOCCOC(=O)C(CC)CCCC (stereo not given) [Tetraethylene glycol di(2-ethylhexanoate)]	–	–	–	214.4 Å²	–
FC(F)(F)c1ccc(OCCCOc2c(Cl)cc(OCC=C(Cl)Cl)cc2Cl)nc1 [Pyridalyl]	203.8 Å²	–	203 Å²	215 Å²	–
CC(C)(C#N)Nc1nc(Cl)nc(NC2CC2)n1 [Procyazine]	159 Å²	–	159.4 Å²	–	–
CCNc1nc(NC(C)CC)nc(OC)n1 (stereo not given) [Secbumeton]	155.2 Å²	–	155.3 Å²	172.2 Å²	–
CCC(CC)C(=O)O [2-Ethylbutyric acid]	–	127.6 Å²	–	–	–
O=C1c2ccccc2C(=O)C1c1nc2ccccc2c(Br)c1O [C.I. Disperse Yellow 64]	–	171.5 Å²	167.5 Å²	–	–
Oc1ccc(Oc2ccccc2)cc1 [4-Phenoxyphenol]	–	145.7 Å²	–	–	–
O=C(NC(=O)c1c(F)cccc1F)Nc1ccc(Oc2ccc(C(F)(F)F)cc2Cl)cc1F [Flufenoxuron]	–	215.8 Å²	–	–	–
CCCCCCCOC(C)=O [Heptyl acetate]	–	146.8 Å²	–	–	–
CCc1nc(N)nc(N)c1-c1ccc(Cl)cc1 [Pyrimethamine]	159.4 Å²	–	158.8 Å²	–	–
CC(C)c1cccc(C(C)C)c1N=C=Nc1c(C(C)C)cccc1C(C)C [Bis(2,6-diisopropylphenyl)carbodiimide]	190.5 Å²	–	189.6 Å²	–	–
O=C(Nc1ccccc1)N(Cc1ccc(Cl)cc1)C1CCCC1 [Pencycuron]	180.5 Å²	185.7 Å²	180.7 Å²	192.8 Å²	–
CC(C)c1cccc(C(C)C)c1NC(=O)NS(=O)(=O)c1cc(C(C)(C)O)co1	–	199.5 Å²	–	207.5 Å²	–
Cc1cc(=O)oc2cc(O)ccc12 [4-Methylumbelliferone hydrate]	133 Å²	133.7 Å²	–	–	–

Compound	collision cross section in nitrogen [1]	collision cross section in nitrogen [2]	collision cross section in nitrogen [3]	collision cross section in nitrogen [4]	other results
O=C1OC[C@H](Cc2cccc(O)c2)[C@H]1Cc1cccc(O)c1 [(-)-Enterolactone]	–	165.3 Å²	–	178.2 Å²	–
CNP(=O)(OC)Oc1ccc(C(C)(C)C)cc1Cl (stereo not given) [Crufomate]	165 Å²	–	165.2 Å²	176.3 Å²	–
OC12N=C(c3ccccc3)SC1Cc1cc(Cl)ccc12 (stereo not given) [HMR1426]	167.9 Å²	–	167.8 Å²	–	–
Cc1occc(=O)c1O [Maltol]	–	–	119.5 Å²	–	–
C=CC(=O)OCCn1c(=O)n(CCOC(=O)C=C)c(=O)n(CCOC(=O)C=C)c1=O	–	–	–	184.5 Å²	–
CCC(=O)O[C@H]1C[C@@H]2CC[C@@]1(C)C2(C)C [Isobornyl propanoate]	–	155.8 Å²	–	–	–
Cc1cc(O)c(Cl)c(C)c1Cl [2,4-Dichloro-3,5-dimethylphenol]	–	135.4 Å²	–	–	–
COc1ccc2c(c1)c(CC(=O)O)c(C)n2C(=O)c1ccc(Cl)cc1 [Indomethacin]	181.2 Å²	–	–	191.6 Å²	–
Oc1ccc2cc(SSc3ccc4cc(O)ccc4c3)ccc2c1 [6-Hydroxy-2-naphthyl disulfide]	–	185.8 Å²	–	–	–
O=C(Nc1ccccc1)c1cc([N+](=O)[O-])ccc1Cl [2-Chloro-5-nitro-N-phenylbenzamide]	–	159.9 Å²	–	–	–
O=S(=O)(O)c1ccc(N=Nc2c(O)ccc3cc(S(=O)(=O)O)ccc23)cc1 [FD&C Yellow 6]	–	203.1 Å²	–	–	–
CCCCOC(=O)CCCCCCCCC(=O)OCCCC [Dibutyl decanedioate]	–	–	–	193.5 Å²	–
COc1cccc([C@@]2(O)CCCC[C@@H]2CN(C)C)c1 [Tramadol]	161.1 Å²	–	160.6 Å²	171.7 Å²	–
O=C1CCCCCN1SSN1CCCCCC1=O [1,1'-Disulfanediyldiazepan-2-one]	–	–	–	168.7 Å²	–
CCCCCCCC/C=C\CCCCCCCC(=O)OCC(O)CO (stereo not given) [Glyceryl monooleate]	–	–	–	197.2 Å²	–
CC(C)c1cccc(O)c1 [3-Isopropylphenol]	–	132.9 Å²	–	–	–
Cc1cc(Cc2cc(C)cc(C(C)(C)C)c2O)c(O)c(C(C)(C)C)c1 [2,2'-Methylenebis(4-methyl-6-tert-butylphenol)]	–	195.4 Å²	–	–	–
Nc1nc(N)nc(NC2CC2)n1 [Cyromazine]	135.9 Å²	–	135.6 Å²	–	–
